What follows are compounds tested against ATR kinase (full-length ATR) (Homo sapiens (Human), UniProt Q13535) (assay: ATR inhibition assay (radioactive-phosphate incorporation)). Settings: not given.
Chain of ATR kinase (full-length ATR) (Q13535 whole entry): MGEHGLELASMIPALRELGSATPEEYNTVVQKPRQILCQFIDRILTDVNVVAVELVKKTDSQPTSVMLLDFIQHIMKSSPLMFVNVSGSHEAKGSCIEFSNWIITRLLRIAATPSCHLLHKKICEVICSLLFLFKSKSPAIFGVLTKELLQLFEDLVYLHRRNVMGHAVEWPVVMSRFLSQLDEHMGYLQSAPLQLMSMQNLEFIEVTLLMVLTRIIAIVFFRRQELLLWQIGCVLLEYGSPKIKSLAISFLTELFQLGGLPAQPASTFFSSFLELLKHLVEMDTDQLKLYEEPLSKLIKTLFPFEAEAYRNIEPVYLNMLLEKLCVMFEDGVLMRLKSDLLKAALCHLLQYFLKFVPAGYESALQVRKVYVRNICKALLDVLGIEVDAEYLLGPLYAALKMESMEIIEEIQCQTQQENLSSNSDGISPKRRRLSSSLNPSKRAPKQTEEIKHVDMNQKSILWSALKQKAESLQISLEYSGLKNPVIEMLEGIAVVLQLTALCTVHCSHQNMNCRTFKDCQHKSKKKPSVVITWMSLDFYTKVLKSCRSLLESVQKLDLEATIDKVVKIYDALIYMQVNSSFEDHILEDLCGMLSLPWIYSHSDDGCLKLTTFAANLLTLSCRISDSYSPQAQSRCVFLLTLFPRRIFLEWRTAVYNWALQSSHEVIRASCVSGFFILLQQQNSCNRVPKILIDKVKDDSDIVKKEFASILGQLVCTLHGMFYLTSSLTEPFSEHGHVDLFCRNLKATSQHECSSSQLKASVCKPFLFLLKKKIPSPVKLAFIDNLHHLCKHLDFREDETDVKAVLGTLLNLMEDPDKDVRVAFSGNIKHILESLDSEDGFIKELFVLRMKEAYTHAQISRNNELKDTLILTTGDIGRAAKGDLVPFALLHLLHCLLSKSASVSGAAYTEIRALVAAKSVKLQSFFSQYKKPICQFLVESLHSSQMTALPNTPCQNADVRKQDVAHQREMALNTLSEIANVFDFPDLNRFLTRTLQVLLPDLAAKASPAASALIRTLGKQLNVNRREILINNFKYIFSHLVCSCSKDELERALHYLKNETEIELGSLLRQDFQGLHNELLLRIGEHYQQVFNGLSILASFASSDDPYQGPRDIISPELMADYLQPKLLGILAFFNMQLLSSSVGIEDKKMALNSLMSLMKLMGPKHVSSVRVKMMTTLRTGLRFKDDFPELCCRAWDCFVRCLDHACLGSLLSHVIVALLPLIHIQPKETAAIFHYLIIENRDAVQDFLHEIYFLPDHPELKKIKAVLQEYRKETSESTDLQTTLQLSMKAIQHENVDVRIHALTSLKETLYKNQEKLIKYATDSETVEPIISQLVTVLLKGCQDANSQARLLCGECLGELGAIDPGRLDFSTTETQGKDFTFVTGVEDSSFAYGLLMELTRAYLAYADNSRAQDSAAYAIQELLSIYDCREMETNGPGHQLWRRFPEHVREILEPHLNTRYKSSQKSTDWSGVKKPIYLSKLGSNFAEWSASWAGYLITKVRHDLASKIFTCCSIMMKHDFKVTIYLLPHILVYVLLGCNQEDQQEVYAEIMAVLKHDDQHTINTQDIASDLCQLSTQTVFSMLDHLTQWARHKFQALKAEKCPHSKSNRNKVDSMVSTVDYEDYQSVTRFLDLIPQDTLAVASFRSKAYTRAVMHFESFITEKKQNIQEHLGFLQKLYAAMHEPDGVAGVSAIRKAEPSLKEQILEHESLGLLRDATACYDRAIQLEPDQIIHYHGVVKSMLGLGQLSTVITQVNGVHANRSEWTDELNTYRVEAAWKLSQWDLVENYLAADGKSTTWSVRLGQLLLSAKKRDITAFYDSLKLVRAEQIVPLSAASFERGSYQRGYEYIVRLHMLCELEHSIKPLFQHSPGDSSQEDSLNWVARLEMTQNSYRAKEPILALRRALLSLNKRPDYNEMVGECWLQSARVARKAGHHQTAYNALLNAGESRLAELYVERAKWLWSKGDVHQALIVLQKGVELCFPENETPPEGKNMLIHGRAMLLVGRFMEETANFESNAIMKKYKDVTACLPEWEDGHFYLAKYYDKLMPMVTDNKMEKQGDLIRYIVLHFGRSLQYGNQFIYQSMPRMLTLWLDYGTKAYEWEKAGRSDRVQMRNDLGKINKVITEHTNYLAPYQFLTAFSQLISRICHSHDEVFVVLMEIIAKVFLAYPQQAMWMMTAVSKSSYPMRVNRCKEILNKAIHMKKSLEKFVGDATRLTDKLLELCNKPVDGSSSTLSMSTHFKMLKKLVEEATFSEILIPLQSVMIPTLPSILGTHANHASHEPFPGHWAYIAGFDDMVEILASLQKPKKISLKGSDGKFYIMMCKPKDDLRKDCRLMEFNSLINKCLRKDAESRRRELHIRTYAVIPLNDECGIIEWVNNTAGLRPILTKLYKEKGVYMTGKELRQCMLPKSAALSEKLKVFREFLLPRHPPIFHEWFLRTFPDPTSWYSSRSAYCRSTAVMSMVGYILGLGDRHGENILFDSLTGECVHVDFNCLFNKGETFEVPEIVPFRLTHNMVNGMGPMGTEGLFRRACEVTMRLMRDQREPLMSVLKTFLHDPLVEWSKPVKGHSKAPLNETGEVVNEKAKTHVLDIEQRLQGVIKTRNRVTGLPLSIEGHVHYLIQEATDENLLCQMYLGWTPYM
Format: biochemical
Procedure, shortened: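 Radiometric 33P incorporation by 5 nM full-length ATR into 800 μM target peptide with 10 μM [γ-33P]ATP, in 50 mM Tris/HCl pH 7.5, 10 mM MgCl2, 1 mM DTT, 7% DMSO, 25° C. Compound pre-incubated 10 minutes; reaction stopped after 24 hours, captured on phosphocellulose. Ki(app) from non-linear regression of initial rates.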
Work on `CN1CCC(c2ccncc2NC(=O)c2c(N)nn3cc(C(C)(C)C#N)cnc23)CC1` [I-C-23, 2-amino-6-(2-cyanopropan-2-yl)-N-(4-(1-methylpiperidin-4-yl)pyridin-3-yl)pyrazolo[1,5-a]pyrimidine-3-carboxamide] yielded a Ki of 1000 to 5000 nM.

Same assay, conditions: Ki(app), 5 nM full-length ATR, 10 μM ATP, 25° C.
`CN(C)CC1CCN(c2ccncc2NC(=O)c2c(N)nn3cc(F)cnc23)CC1` [I-N-267, 2-amino-N-(4-(4-((dimethylamino)methyl)piperidin-1-yl)pyridin-3-yl)-6-fluoropyrazolo[1,5-a]pyrimidine-3-carboxamide] was tested, and the Ki was 10 to 1000 nM.
With `CN1CC(C(=O)N2CCN(c3c(F)cncc3NC(=O)c3c(N)nn4cc(F)cnc34)CC2)C1` [I-N-194] the Ki was 10 to 1000 nM.
Compound `C[C@@H]1CN(C(=O)C2CCN(c3c(F)cncc3NC(=O)c3c(N)nn4cc(F)cnc34)CC2)CCN1C` [I-G-50, (R)-2-amino-N-(4-(4-(3,4-dimethylpiperazine-1-carbonyl)piperidin-1-yl)-5-fluoropyridin-3-yl)-6-fluoropyrazolo[1,5-a]pyrimidine-3-carboxamide] has a Ki of 10 to 1000 nM.
In the case of `CS(=O)(=O)C1CCN(c2c(Cl)cncc2NC(=O)c2c(N)nn3cc(F)cnc23)C1` (stereo not shown) [I-N-287, 2-amino-N-(5-chloro-4-(3-(methylsulfonyl)pyrrolidin-1-yl)pyridin-3-yl)-6-fluoropyrazolo[1,5-a]pyrimidine-3-carboxamide], the Ki is reported as 10 to 1000 nM.
`Nc1nn2cc(F)cnc2c1C(=O)Nc1cncc(F)c1N1CCC(C(=O)N2CCOCC2)CC1` [I-G-36, 2-amino-6-fluoro-N-(5-fluoro-4-(4-(morpholine-4-carbonyl)piperidin-1-yl)pyridin-3-yl)pyrazolo[1,5-a]pyrimidine-3-carboxamide] showed a Ki of 10 to 1000 nM.
`C[C@@H]1CN(C(=O)C2CCN(c3c(F)cncc3NC(=O)c3c(N)nn4cc(F)cnc34)CC2)CCN1` [I-G-45, (R)-2-amino-6-fluoro-N-(5-fluoro-4-(4-(3-methylpiperazine-1-carbonyl)piperidin-1-yl)pyridin-3-yl)pyrazolo[1,5-a]pyrimidine-3-carboxamide] showed a Ki of 10 to 1000 nM.
Compound `Nc1nn2cc(F)cnc2c1C(=O)Nc1cncc(F)c1N1CCN2C(=O)CCC2C1` (stereo not shown) [I-N-163, 2-amino-6-fluoro-N-(5-fluoro-4-(6-oxohexahydropyrrolo[1,2-a]pyrazin-2(1H)-yl)pyridin-3-yl)pyrazolo[1,5-a]pyrimidine-3-carboxamide] has a Ki of 10 to 1000 nM.
`CS(=O)(=O)C1CCCN(c2ccncc2NC(=O)c2c(N)nn3cc(F)cnc23)C1` (stereo not shown) [I-N-221, 2-amino-6-fluoro-N-(4-(3-(methylsulfonyl)piperidin-1-yl)pyridin-3-yl)pyrazolo[1,5-a]pyrimidine-3-carboxamide] showed a Ki of 10 to 1000 nM.
`Nc1nn2cc(F)cnc2c1C(=O)Nc1cnccc1-n1ccnc1` [I-N-7, N-(4-(1H-imidazol-1-yl)pyridin-3-yl)-2-amino-6-fluoropyrazolo[1,5-a]pyrimidine-3-carboxamide] showed a Ki of 10 to 1000 nM.
In the case of `Nc1nn2cc(F)cnc2c1C(=O)Nc1cncc(F)c1N1CCN(CC(=O)N2CCC2)CC1` [I-N-228, 2-amino-N-(4-(4-(2-(azetidin-1-yl)-2-oxoethyl)piperazin-1-yl)-5-fluoropyridin-3-yl)-6-fluoropyrazolo[1,5-a]pyrimidine-3-carboxamide], the Ki is reported as 10 to 1000 nM.
For `N#CCc1cnc2c(C(=O)Nc3cnccc3N3CCCCCC3)c(N)nn2c1` [I-N-79, 2-amino-N-(4-(azepan-1-yl)pyridin-3-yl)-6-(cyanomethyl)pyrazolo[1,5-a]pyrimidine-3-carboxamide], the Ki was 10 to 1000 nM.
`Cc1nnc(N2CCN(c3ccncc3NC(=O)c3c(N)nn4cc(F)cnc34)CC2)o1` [I-N-256, 2-amino-6-fluoro-N-(4-(4-(5-methyl-1,3,4-oxadiazol-2-yl)piperazin-1-yl)pyridin-3-yl)pyrazolo[1,5-a]pyrimidine-3-carboxamide] gave a Ki of 10 to 1000 nM.
For `Nc1nn2cc(Cl)cnc2c1C(=O)Nc1cnccc1N1CCC(N2CCCC2)CC1` [I-N-105, 2-amino-6-chloro-N-(4-(4-(pyrrolidin-1-yl)piperidin-1-yl)pyridin-3-yl)pyrazolo[1,5-a]pyrimidine-3-carboxamide], the Ki was 10 to 1000 nM.
`COc1cncc(NC(=O)c2c(N)nn3cc(F)cnc23)c1-c1cccnc1` [I-C-82, 2-amino-6-fluoro-N-(5′-methoxy-[3,4′-bipyridin]-3′-yl)pyrazolo[1,5-a]pyrimidine-3-carboxamide] gave a Ki of 10 to 1000 nM.
In the case of `Cn1ccc2c(NC(=O)c3c(N)nn4cc(F)cnc34)cncc21` [I-C-74, 2-amino-6-fluoro-N-(1-methyl-1H-pyrrolo[2,3-c]pyridin-4-yl)pyrazolo[1,5-a]pyrimidine-3-carboxamide], the Ki is reported as 10 to 1000 nM.
Work on `CN1CCN(c2ccncc2NC(=O)c2c(N)nn3cc(F)cnc23)CC12CCOCC2` [I-N-133, 2-amino-6-fluoro-N-(4-(1-methyl-9-oxa-1,4-diazaspiro[5.5]undecan-4-yl)pyridin-3-yl)pyrazolo[1,5-a]pyrimidine-3-carboxamide] yielded a Ki of 10 to 1000 nM.
`CN1CCC[C@H]1C(=O)N1CCN(c2c(F)cncc2NC(=O)c2c(N)nn3cc(F)cnc23)CC1` [I-N-157, (S)-2-amino-6-fluoro-N-(5-fluoro-4-(4-(1-methylpyrrolidine-2-carbonyl)piperazin-1-yl)pyridin-3-yl)pyrazolo[1,5-a]pyrimidine-3-carboxamide] was tested, and the Ki was 10 to 1000 nM.
Compound `CN1CC2CC1CN2C(=O)C1CCN(c2c(F)cncc2NC(=O)c2c(N)nn3cc(F)cnc23)CC1` (stereo not shown) [I-G-53, 2-amino-6-fluoro-N-(5-fluoro-4-(4-(5-methyl-2,5-diazabicyclo[2.2.1]heptane-2-carbonyl)piperidin-1-yl)pyridin-3-yl)pyrazolo[1,5-a]pyrimidine-3-carboxamide] has a Ki of 10 to 1000 nM.
For `Nc1nn2cc(Cl)cnc2c1C(=O)Nc1cnccc1N1CCn2ccnc2C1` [I-N-44, 2-amino-6-chloro-N-(4-(5,6-dihydroimidazo[1,2-a]pyrazin-7(8H)-yl)pyridin-3-yl)pyrazolo[1,5-a]pyrimidine-3-carboxamide], the Ki was 10 to 1000 nM.
For `Nc1nn2cc(F)cnc2c1C(=O)Nc1cncc(F)c1N1CCC(CN2CCCC2=O)CC1` [I-N-213, 2-amino-6-fluoro-N-(5-fluoro-4-(4-((2-oxopyrrolidin-1-yl)methyl)piperidin-1-yl)pyridin-3-yl)pyrazolo[1,5-a]pyrimidine-3-carboxamide], the Ki was 10 to 1000 nM.
In the case of `CN1CC[C@H](Oc2ccncc2NC(=O)c2c(N)nn3cc(F)cnc23)C1` [I-O-1, (S)-2-amino-6-fluoro-N-(4-((1-methylpyrrolidin-3-yl)oxy)pyridin-3-yl)pyrazolo[1,5-a]pyrimidine-3-carboxamide], the Ki is reported as 10 to 1000 nM.
With `Nc1nn2cc(F)cnc2c1C(=O)Nc1cnccc1OC1CCOC1` (racemic) [I-O-15, (R,S)-2-amino-6-fluoro-N-(4-((tetrahydrofuran-3-yl)oxy)pyridin-3-yl)pyrazolo[1,5-a]pyrimidine-3-carboxamide] the Ki was 10 to 1000 nM.
`CN1CCCN(C(=O)C2CCN(c3c(F)cncc3NC(=O)c3c(N)nn4cc(F)cnc34)CC2)CC1` [I-G-6, 2-amino-6-fluoro-N-(5-fluoro-4-(4-(4-methyl-1,4-diazepane-1-carbonyl)piperidin-1-yl)pyridin-3-yl)pyrazolo[1,5-a]pyrimidine-3-carboxamide] gave a Ki of 10 to 1000 nM.
`Cc1ccc(-c2ccncc2NC(=O)c2c(N)nn3cc(F)cnc23)cn1` [I-C-22, 2-amino-6-fluoro-N-(6-methyl-[3,4′-bipyridin]-3′-yl)pyrazolo[1,5-a]pyrimidine-3-carboxamide] showed a Ki of 10 to 1000 nM.
`CCOc1ccncc1NC(=O)c1c(N)nn2cc(Cl)cnc12` [I-O-56, 2-amino-6-chloro-N-(4-ethoxypyridin-3-yl)pyrazolo[1,5-a]pyrimidine-3-carboxamide] gave a Ki of 10 to 1000 nM.
Work on `Nc1nn2cc(F)cnc2c1C(=O)Nc1cnccc1N1CCN2C(=O)COCC2C1` (stereo not shown) [I-N-136, 2-amino-6-fluoro-N-(4-(4-oxohexahydropyrazino[2,1-c][1,4]oxazin-8(1H)-yl)pyridin-3-yl)pyrazolo[1,5-a]pyrimidine-3-carboxamide] yielded a Ki of 10 to 1000 nM.
In the case of `CN1CCC[C@@H]1C(=O)N1CCN(c2c(F)cncc2NC(=O)c2c(N)nn3cc(F)cnc23)CC1` [I-N-181, (R)-2-amino-6-fluoro-N-(5-fluoro-4-(4-(1-methylpyrrolidine-2-carbonyl)piperazin-1-yl)pyridin-3-yl)pyrazolo[1,5-a]pyrimidine-3-carboxamide], the Ki is reported as 10 to 1000 nM.
Work on `Nc1nn2cc(F)cnc2c1C(=O)Nc1cncc(F)c1N1CCC(C(=O)N2CC3CCC(C2)N3)CC1` [I-G-44, N-(4-(4-(3,8-diazabicyclo[3.2.1]octane-3-carbonyl)piperidin-1-yl)-5-fluoropyridin-3-yl)-2-amino-6-fluoropyrazolo[1,5-a]pyrimidine-3-carboxamide] yielded a Ki of 10 to 1000 nM.
`Nc1nn2cc(F)cnc2c1C(=O)Nc1cnccc1C1CCOC1` (stereo not shown) [I-C-75, 2-amino-6-fluoro-N-(4-(tetrahydrofuran-3-yl)pyridin-3-yl)pyrazolo[1,5-a]pyrimidine-3-carboxamide] showed a Ki of 10 to 1000 nM.
Work on `Nc1nn2cc(F)cnc2c1C(=O)Nc1cnccc1C1CCN(C(=O)C23CCN(CC2)CC3)CC1` [I-C-18, 2-amino-6-fluoro-N-(4-(1-(quinuclidine-4-carbonyl)piperidin-4-yl)pyridin-3-yl)pyrazolo[1,5-a]pyrimidine-3-carboxamide] yielded a Ki of 10 to 1000 nM.
`Nc1nn2cc(F)cnc2c1C(=O)Nc1cnccc1-c1cccnc1F` [I-C-35, 2-amino-6-fluoro-N-(2-fluoro-[3,4′-bipyridin]-3′-yl)pyrazolo[1,5-a]pyrimidine-3-carboxamide] showed a Ki of 10 to 1000 nM.
Compound `CN(C)C(=O)C1CCN(c2c(F)cncc2NC(=O)c2c(N)nn3cc(F)cnc23)CC1` [I-G-29, 2-amino-N-(4-(4-(dimethylcarbamoyl)piperidin-1-yl)-5-fluoropyridin-3-yl)-6-fluoropyrazolo[1,5-a]pyrimidine-3-carboxamide] has a Ki of 10 to 1000 nM.
In the case of `CN(C)C1CCCN(c2ccncc2NC(=O)c2c(N)nn3cc(Cl)cnc23)C1` (stereo not shown) [I-N-40, 2-amino-6-chloro-N-(4-(3-(dimethylamino)piperidin-1-yl)pyridin-3-yl)pyrazolo[1,5-a]pyrimidine-3-carboxamide], the Ki is reported as 10 to 1000 nM.
